From ChEMBL document CHEMBL1201862, “PubChem BioAssay data set” (2004)
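Where inhibition never reached the appropriate level, the endpoint shown equals the highest concentration tested. Otherwise, values were interpolated linearly from a five-concentration, 48-hour dose response in 96-well plates. GI50 is the concentration that inhibits growth by half.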 Activity calls are given as the source filed them. Rule as the data show it: active = GI50 up to about 1.1 µM and inactive = higher.

Key:
Assay in all cases: NCI-60 cell line screen, 48 h
[1] = system: SNB-75
[2] = system: RPMI-8226
[3] = system: OVCAR-5
[4] = system: PC-3
[5] = system: TK-10
[6] = system: MOLT-4
[7] = system: HOP-62
[8] = system: UO-31
[9] = system: LOX IMVI
[10] = system: NCI-H23
[11] = system: SF-539
[12] = system: NCI-H460
[13] = system: OVCAR-3
[14] = system: CAKI-1
[15] = system: UACC-257
[16] = system: SW-620
[17] = system: MDA-MB-231
[18] = system: UACC-62
[19] = system: 786-0
[20] = system: NCI-H226

Row | SMILES | GI50 [1] | GI50 [2] | GI50 [3] | GI50 [4] | GI50 [5] | GI50 [6] | GI50 [7] | GI50 [8] | GI50 [9] | GI50 [10] | GI50 [11] | GI50 [12] | GI50 [13] | GI50 [14] | GI50 [15] | GI50 [16] | GI50 [17] | GI50 [18] | GI50 [19] | GI50 [20]
1 | COc1cc2nc(-c3ccccc3)cc(O)c2cc1OC | 12.1 µM (inactive) | 27 µM (inactive) | 41.1 µM (inactive) | 23 µM (inactive) | 55.8 µM (inactive) | 17.6 µM (inactive) | 19 µM (inactive) | 52 µM (inactive) | 10.7 µM (inactive) | 21.8 µM (inactive) | 14.3 µM (inactive) | 11.2 µM (inactive) | 4.44 µM (inactive) | 23.6 µM (inactive) | 63.7 µM (inactive) | 10.8 µM (inactive) | 26.7 µM (inactive) | 10.8 µM (inactive) | 27.8 µM (inactive) | 14.4 µM (inactive)
2 | O=c1c2ccccc2n2cnc3ccc(NCCNCCO)c1c32 | 1.86 µM (inactive) | 2.2 µM (inactive) | 2.02 µM (inactive) | 1.91 µM (inactive) | 2.92 µM (inactive) | 0.359 µM (active) | 1.4 µM (inactive) | 2.87 µM (inactive) | 1.11 µM (active) | 2.16 µM (inactive) | 3.24 µM (inactive) | 0.536 µM (active) | 2.19 µM (inactive) | 2.43 µM (inactive) | 3.37 µM (inactive) | 0.589 µM (active) | 2.31 µM (inactive) | 2.31 µM (inactive) | 0.889 µM (active) | 1.29 µM (inactive)
3 | COc1ccc(/C=C2\CCC(CN3CCOCC3)C2=O)cc1 (centres undefined) | 4.68 µM (inactive) | 0.552 µM (active) | 9.06 µM (inactive) | 3.15 µM (inactive) | 3.57 µM (inactive) | 1.83 µM (inactive) | 10.5 µM (inactive) | 8.45 µM (inactive) | 4.65 µM (inactive) | 5.94 µM (inactive) | 5.92 µM (inactive) | 17.8 µM (inactive) | 3.28 µM (inactive) | 1.99 µM (inactive) | 2.37 µM (inactive) | 1.79 µM (inactive) | 2.08 µM (inactive) | 11.8 µM (inactive) | 1.65 µM (inactive) | 18.9 µM (inactive)
4 | C=C(CN(C)C)C(=O)c1ccc(OC2OC(COC(C)=O)C(OC(C)=O)C(OC(C)=O)C2OC(C)=O)cc1 (centres undefined) | 11.4 µM (inactive) | 2.88 µM (inactive) | 16.5 µM (inactive) | 15.3 µM (inactive) | 3.39 µM (inactive) | 0.54 µM (active) | 15.3 µM (inactive) | 2.34 µM (inactive) | 3.35 µM (inactive) | 8.89 µM (inactive) | 10.1 µM (inactive) | 20.1 µM (inactive) | 2.25 µM (inactive) | 1.59 µM (inactive) | 2.34 µM (inactive) | 0.678 µM (active) | 5 µM (inactive) | 4.7 µM (inactive) | 2.24 µM (inactive) | 7.36 µM (inactive)
5 | CC(=O)NC1C(O)C(O)C(CO)OC1n1nc(SCc2ccccc2)c(=O)[nH]c1=O (centres undefined) | > 65 µM (inactive) | > 100 µM (inactive) | > 100 µM (inactive) | > 100 µM (inactive) | > 100 µM (inactive) | > 100 µM (inactive) | > 100 µM (inactive) | > 100 µM (inactive) | > 100 µM (inactive) | > 100 µM (inactive) | > 100 µM (inactive) | > 100 µM (inactive) | > 100 µM (inactive) | > 100 µM (inactive) | > 100 µM (inactive) | > 100 µM (inactive) | > 100 µM (inactive) | > 100 µM (inactive) | > 100 µM (inactive) | > 100 µM (inactive)
6 | CCCCCCNCCCNc1c2cc(OC)ccc2nc2cccc([N+](=O)[O-])c12 | 0.298 µM (active) | < 0.0289 µM (active) | 0.135 µM (active) | 0.144 µM (active) | 0.131 µM (active) | 0.112 µM (active) | 0.0908 µM (active) | 0.188 µM (active) | 0.134 µM (active) | 0.124 µM (active) | 0.29 µM (active) | 0.0336 µM (active) | 0.0966 µM (active) | 0.211 µM (active) | 0.366 µM (active) | < 0.0233 µM (active) | 0.055 µM (active) | 0.143 µM (active) | 0.0834 µM (active) | 0.257 µM (active)
7 | COc1ccc2cc(NC(=O)Nn3cnnc3)ccc2c1 | 12.7 µM (inactive) | > 100 µM (inactive) | > 100 µM (inactive) | > 100 µM (inactive) | > 100 µM (inactive) | > 100 µM (inactive) | > 100 µM (inactive) | > 100 µM (inactive) | > 100 µM (inactive) | > 100 µM (inactive) | > 100 µM (inactive) | > 100 µM (inactive) | > 100 µM (inactive) | > 100 µM (inactive) | > 100 µM (inactive) | > 100 µM (inactive) | > 100 µM (inactive) | > 100 µM (inactive) | > 100 µM (inactive) | > 100 µM (inactive)
8 | CCOP1(=O)OCC2OC(n3cnc4c(N)ncnc43)C(O)C2O1.c1ccccc1 (centres undefined) | > 100 µM (inactive) | > 100 µM (inactive) | > 100 µM (inactive) | > 100 µM (inactive) | > 100 µM (inactive) | > 100 µM (inactive) | > 100 µM (inactive) | > 100 µM (inactive) | > 100 µM (inactive) |  | > 100 µM (inactive) | > 100 µM (inactive) | > 100 µM (inactive) | > 100 µM (inactive) | > 100 µM (inactive) | > 100 µM (inactive) | > 100 µM (inactive) | > 100 µM (inactive) | > 100 µM (inactive) | > 100 µM (inactive)
9 | CCOC(=O)CCC(NC(=O)c1ccc(Oc2nc3ccccc3nc2-c2ccccc2)cc1)C(=O)OCC (centres undefined) | 8.85 µM (inactive) | 37.6 µM (inactive) | > 55 µM (inactive) | 92.9 µM (inactive) | 17.5 µM (inactive) | > 100 µM (inactive) | 11.2 µM (inactive) | 34 µM (inactive) | 43.7 µM (inactive) | 17.4 µM (inactive) | 3.6 µM (inactive) | > 80.4 µM (inactive) | 15.4 µM (inactive) | 19.5 µM (inactive) | > 100 µM (inactive) | > 100 µM (inactive) | 10.6 µM (inactive) | 32.7 µM (inactive) | 3.67 µM (inactive) | 13.2 µM (inactive)
10 | O=C(Cn1c(=O)oc2ccccc21)N(c1ccccc1)c1ccccc1 | 11.5 µM (inactive) | > 100 µM (inactive) | > 100 µM (inactive) | > 100 µM (inactive) | > 100 µM (inactive) | > 100 µM (inactive) | > 100 µM (inactive) | > 100 µM (inactive) | > 100 µM (inactive) | > 100 µM (inactive) | 88.9 µM (inactive) | > 100 µM (inactive) | > 100 µM (inactive) | > 100 µM (inactive) | > 100 µM (inactive) | > 100 µM (inactive) | > 100 µM (inactive) | > 100 µM (inactive) | > 100 µM (inactive) | 15.2 µM (inactive)
11 | CCCCC(=O)OC[n+]1ccc(-c2c(COC(=O)NC(C)C)c(COC(=O)NC(C)C)c3n2CCC3)cc1 | 60.3 µM (inactive) | > 68.7 µM (inactive) | > 100 µM (inactive) | > 84.5 µM (inactive) | > 100 µM (inactive) | 19.5 µM (inactive) | > 59.6 µM (inactive) | > 100 µM (inactive) | 47.9 µM (inactive) | 53.6 µM (inactive) | 40.4 µM (inactive) | 42.3 µM (inactive) | > 100 µM (inactive) | 24.9 µM (inactive) | > 100 µM (inactive) | > 76.2 µM (inactive) | > 67.6 µM (inactive) | 30.9 µM (inactive) | 39.4 µM (inactive) | > 100 µM (inactive)
12 | O=c1c2c3c(sc2nc2n1N=C(c1ccc(Cl)cc1)CS2)CCCC3 | > 100 µM (inactive) | > 100 µM (inactive) | > 100 µM (inactive) | > 100 µM (inactive) | > 100 µM (inactive) | > 100 µM (inactive) | > 100 µM (inactive) | > 100 µM (inactive) | > 100 µM (inactive) | > 100 µM (inactive) | > 100 µM (inactive) | > 100 µM (inactive) | > 100 µM (inactive) | > 100 µM (inactive) | > 100 µM (inactive) | > 100 µM (inactive) | > 100 µM (inactive) | > 100 µM (inactive) | > 100 µM (inactive) | > 100 µM (inactive)
13 | COc1cc(-c2[o+]c3cc(O)cc(O)c3cc2O)cc(O)c1O | > 100 µM (inactive) | > 100 µM (inactive) | > 100 µM (inactive) | > 100 µM (inactive) | > 100 µM (inactive) | > 100 µM (inactive) | > 100 µM (inactive) | > 100 µM (inactive) | 55.8 µM (inactive) | > 100 µM (inactive) | > 100 µM (inactive) | > 100 µM (inactive) | > 100 µM (inactive) | > 100 µM (inactive) | > 100 µM (inactive) | 30.6 µM (inactive) | > 100 µM (inactive) | > 100 µM (inactive) | > 100 µM (inactive) | > 100 µM (inactive)
14 | COC(OC)(c1ccccc1)C(I)I | 13.1 µM (inactive) | 2.09 µM (inactive) | 16.2 µM (inactive) | 14.2 µM (inactive) | 13.3 µM (inactive) | 2.38 µM (inactive) | 28.1 µM (inactive) | 16.3 µM (inactive) | 13.4 µM (inactive) | 19.2 µM (inactive) | 12.7 µM (inactive) | 16.7 µM (inactive) | 15.3 µM (inactive) | 11.8 µM (inactive) | 3.45 µM (inactive) | 2.92 µM (inactive) | 18.9 µM (inactive) | 13.4 µM (inactive) | 8.36 µM (inactive) | 20.8 µM (inactive)
